Assay results taken from US9131690B2, “Macrocyclic picolinamides as fungicides” (Dow AgroSciences LLC, priority 2012, dated 2015).
Where two headings read alike, the source gives them in different places.

What was measured:
[1] = tested on: Mycosphaerella graminicola; Anamorph: Septoria tritici; experiment: Fungicidal activity: Leaf Blotch of Wheat (SEPTTR), wheat plants variety Yuma; type: in vivo; set-up: key to SEPTTR 3DC Disease Control: A: 50-100; B: More than 0-Less than 50; C: Not Tested; D: No activity noticed in this bioassay; conditions: for pest or weed control at 100 ppm: Zymoseptoria tritici; for SEPTTR 3DC Disease Control: 100 ppm
Experimental: Evaluation of Fungicidal Activity: Leaf Blotch of Wheat (Mycosphaerella graminicola; Anamorph: Septoria tritici; Bayer Code […]) Wheat plants (variety Yuma) were grown from seed in a greenhouse in 50% mineral soil/50% soil-less Metro mix until the first leaf was fully emerged, with 7-10 seedlings per pot. These plants were inoculated with an aqueous spore suspension of Septoria tritici either prior to or after fungicide treatments. After inoculation the plants were kept in 100% relative humidity (one day in a dark dew chamber followed by two to three days in a lighted dew chamber) to permit spores to germinate and infect the leaf. The plants were then transferred to a greenhouse at 20° C. for disease to develop.

[2] = tested on: Puccinia triticina. Synonym: Puccinia recondite f. sp. tritici; experiment: Fungicidal activity: Wheat Brown Rust (PUCCRT), wheat plants variety Yuma; type: in vivo; set-up: key to PUCCRT 3DC Disease Control: A: 50-100; B: More than 0-Less than 50; C: Not Tested; D: No activity noticed in this bioassay; conditions: for pest or weed control at 100 ppm: Puccinia triticina; for PUCCRT 3DC Disease Control: 100 ppm
Experimental: Evaluation of Fungicidal Activity: Wheat Brown Rust (Puccinia triticina. Synonym: Puccinia recondite f. sp. tritici; Bayer Code PUCCRT) Wheat plants (variety Yuma) were grown from seed in a greenhouse in 50% mineral soil/50% soil-less Metro mix until the first leaf was fully emerged, with 7-10 seedlings per pot. These plants were inoculated with an aqueous spore suspension of Puccinia recondite f. sp. tritici either prior to or after fungicide treatments. After inoculation the plants were kept in 100% relative humidity overnight to permit spores to germinate and infect the leaf. The plants were then transferred to a greenhouse set at 24 C for disease to develop.

[3] = 24 h, 1 Day Protectant, read-out: SEPTTR 1DP Disease Control
[4] = 72 h, 3 Day Curative, read-out: SEPTTR 3DC Disease Control
[5] = 24 h, 1 Day Protectant, read-out: PUCCRT 1DP Disease Control
[6] = 72 h, 3 Day Curative, read-out: PUCCRT 3DC Disease Control

| melting point | SMILES | pest or weed control at 100 ppm [1, 3] | pest or weed control at 100 ppm [1, 4] | pest or weed control at 100 ppm [2, 5] | pest or weed control at 100 ppm [2, 6] | SEPTTR 3DC Disease Control ([1]; 3 Day Curative) | PUCCRT 3DC Disease Control ([2]; 3 Day Curative) |
| --- | --- | --- | --- | --- | --- | --- | --- |
| 131 to 133 °C | COc1ccnc(C(=O)N[C@H]2COC(=O)[C@H](Cc3ccc(C)cc3)[C@@H](OC(=O)C(C)C)[C@H](C)OC2=O)c1OCOC(=O)C(C)C [Compound 22] | 0 to 50% | 0 to 50% | 50 to 100% | 50 to 100% |  |  |
| 171 to 174 °C | COc1ccnc(C(=O)N[C@H]2COC(=O)[C@H](Cc3cccnc3)[C@@H](OC(=O)C(C)C)[C@H](C)OC2=O)c1OCOC(=O)C(C)C [Compound 23] | 0 to 50% | 0 to 50% | 50 to 100% | 50 to 100% |  |  |
| 100 to 103 °C | COc1ccnc(C(=O)N[C@H]2COC(=O)[C@H](Cc3cccc(C(F)(F)F)c3)[C@@H](OC(=O)C(C)C)[C@H](C)OC2=O)c1OCOC(=O)C(C)C [Compound 24] | 50 to 100% | 0 to 50% | 50 to 100% | 50 to 100% |  |  |
| 55 to 68 °C | COc1ccnc(C(=O)N[C@H]2COC(=O)[C@H](Cc3cccc(-c4ccccc4)c3)[C@@H](OC(=O)C(C)C)[C@H](C)OC2=O)c1OCOC(=O)C(C)C [Compound 25] | 50 to 100% | 0 to 50% | 50 to 100% | 50 to 100% |  |  |
| 68 to 69 °C | COc1ccnc(C(=O)N[C@H]2COC(=O)[C@H](CCOC(=O)C3CC3)[C@@H](OC(=O)C(C)C)[C@H](C)OC2=O)c1OCOC(=O)C(C)C [Compound 26] | 0 to 50% | 0 to 50% | 50 to 100% | 50 to 100% |  |  |
| 117 to 119 °C | COc1ccnc(C(=O)N[C@H]2COC(=O)[C@H](CC3CCCCC3)[C@@H](OC(=O)C(C)C)[C@H](C)OC2=O)c1OCOC(=O)C(C)C [Compound 27] | 0 to 50% | 0 to 50% | 0 to 50% | 0 to 50% |  |  |
| 172 to 174 °C | COc1ccnc(C(=O)N[C@H]2COC(=O)[C@H](CCOC(=O)c3ccccc3)[C@@H](OC(=O)C(C)C)[C@H](C)OC2=O)c1O [Compound 35, 2-((3S,7R,8R,9S)-3-(3-hydroxy-4-methoxypicolinamido)-8-(isobutyryloxy)-9-methyl-2,6-dioxo-1,5-dioxonan-7-yl)ethyl benzoate] | 50 to 100% |  | 50 to 100% |  | D | D |
| 157 to 159 °C | COc1ccnc(C(=O)N[C@H]2COC(=O)[C@H](CCOC(=O)C3CC3)[C@@H](OC(=O)C(C)C)[C@H](C)OC2=O)c1O [Compound 38] | 50 to 100% | 0 to 50% | 50 to 100% |  |  | D |
| 159 to 161 °C | COc1ccnc(C(=O)N[C@H]2COC(=O)[C@H](CCOC(=O)c3ccc4c(c3)OCO4)[C@@H](OC(=O)C(C)C)[C@H](C)OC2=O)c1O [Compound 39] | 50 to 100% | 0 to 50% | 50 to 100% | 0 to 50% |  |  |
| 178 to 179 °C | COc1ccnc(C(=O)N[C@H]2COC(=O)[C@H](CCOC(=O)c3ccc(-c4ccccc4)cc3)[C@@H](OC(=O)C(C)C)[C@H](C)OC2=O)c1O [Compound 40] | 50 to 100% | 0 to 50% | 50 to 100% |  |  | D |
| 160 to 162 °C | COc1ccnc(C(=O)N[C@H]2COC(=O)[C@H](CCOC(=O)c3ccc(C(F)(F)F)cc3)[C@@H](OC(=O)C(C)C)[C@H](C)OC2=O)c1O [Compound 42] | 0 to 50% | 0 to 50% | 50 to 100% |  |  | D |
| 167 to 168 °C | COc1ccnc(C(=O)N[C@H]2COC(=O)[C@H](CCOC(=O)c3c(F)c(F)c(F)c(F)c3F)[C@@H](OC(=O)C(C)C)[C@H](C)OC2=O)c1O [Compound 43] | 50 to 100% | 0 to 50% | 50 to 100% | 0 to 50% |  |  |
| 134 to 136 °C | CCOCC[C@H]1C(=O)OC[C@H](NC(=O)c2nccc(OC)c2O)C(=O)O[C@@H](C)[C@@H]1OC(=O)C(C)C [Compound 45] | 0 to 50% | 0 to 50% | 50 to 100% | 50 to 100% |  |  |
| 198 to 200 °C | COc1ccnc(C(=O)N[C@H]2COC(=O)[C@H](C)[C@@H](OC(=O)C(C)C)[C@H](C)OC2=O)c1O [Compound 46, (3S,6S,7R,8R)-3-(3-hydroxy-4-methoxypicolinamido)-6,8-dimethyl-4,9-dioxo-1,5-dioxonan-7-yl isobutyrate] | 50 to 100% |  | 50 to 100% | 0 to 50% | D |  |
| 176 to 178 °C | COc1ccnc(C(=O)N[C@H]2COC(=O)[C@H](CC(=O)Oc3ccccc3)[C@@H](OC(=O)C(C)C)[C@H](C)OC2=O)c1O [Compound 48] | 50 to 100% | 0 to 50% | 50 to 100% |  |  | D |
| 169 to 170 °C | COc1ccnc(C(=O)N[C@H]2COC(=O)[C@H](CC(=O)OC(C)C)[C@@H](OC(=O)C(C)C)[C@H](C)OC2=O)c1O [Compound 49] | 50 to 100% | 50 to 100% | 50 to 100% | 50 to 100% |  |  |
| 138 to 140 °C | COC(=O)C[C@H]1C(=O)OC[C@H](NC(=O)c2nccc(OC)c2O)C(=O)O[C@@H](C)[C@@H]1OC(=O)C(C)C [Compound 50] | 50 to 100% | 50 to 100% | 50 to 100% | 50 to 100% |  |  |
| 103 to 105 °C | COc1ccnc(C(=O)N[C@H]2COC(=O)[C@H](CCOC=O)[C@@H](OC(=O)C(C)C)[C@H](C)OC2=O)c1O [Compound 51, (3S,6S,7R,8R)-8-(2-(formyloxy)ethyl)-3-(3-hydroxy-4-methoxypicolinamido)-6-methyl-4,9-dioxo-1,5-dioxonan-7-yl isobutyrate] | 0 to 50% | 0 to 50% | 50 to 100% |  |  | D |
| 195 to 196 °C | COc1ccnc(C(=O)N[C@H]2COC(=O)[C@H](CC(F)F)[C@@H](OC(=O)C(C)C)[C@H](C)OC2=O)c1O [Compound 52, (3S,6S,7R,8R)-8-(2,2-difluoroethyl)-3-(3-hydroxy-4-methoxypicolinamido)-6-methyl-4,9-dioxo-1,5-dioxonan-7-yl isobutyrate] | 50 to 100% | 0 to 50% | 50 to 100% | 0 to 50% |  |  |
| 193 to 195 °C | CC[C@H]1C(=O)OC[C@H](NC(=O)c2nccc(OC)c2O)C(=O)O[C@@H](C)[C@@H]1OC(=O)C(C)C [Compound 53, (3S,6S,7R,8R)-8-ethyl-3-(3-hydroxy-4-methoxypicolinamido)-6-methyl-4,9-dioxo-1,5-dioxonan-7-yl isobutyrate] | 50 to 100% | 0 to 50% | 50 to 100% |  |  | D |
| 222 to 224 °C | COc1ccnc(C(=O)N[C@H]2COC(=O)[C@H](CCn3cc(-c4cccc(Cl)c4)nn3)[C@@H](OC(=O)C(C)C)[C@H](C)OC2=O)c1O [Compound 54, (3S,6S,7R,8R)-8-(2-(4-(3-chlorophenyl)-1H-1,2,3-triazol-1-yl)ethyl)-3-(3-hydroxy-4 methoxypicolinamido)-6-methyl-4,9-dioxo-1,5-dioxonan-7-yl isobutyrate] | 50 to 100% | 0 to 50% | 50 to 100% |  |  | D |

| SMILES | melting point | pest or weed control at 100 ppm [1, 3] | pest or weed control at 100 ppm [1, 4] | pest or weed control at 100 ppm [2, 5] | pest or weed control at 100 ppm [2, 6] | SEPTTR 3DC Disease Control ([1]; 3 Day Curative) | PUCCRT 3DC Disease Control ([2]; 3 Day Curative) |
| --- | --- | --- | --- | --- | --- | --- | --- |
| COc1ccnc(C(=O)N[C@H]2COC(=O)[C@H](CC(=O)OC(C)(C)C)[C@@H](OC(=O)C(C)C)[C@H](C)OC2=O)c1O [Compound 47, (3S,6S,7R,8R)-8-(2-tert-butoxy-2-oxoethyl)-3-(3-hydroxy-4-methoxypicolinamido)-6-methyl-4,9-dioxo-1,5-dioxonan-7-yl isobutyrate] | 192 to 194 °C | 50 to 100% | 50 to 100% | 50 to 100% | 50 to 100% |  |  |
